The results in this text go back to PubChem BioAssay (NCI).

SMILES strings stand for the structures.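 Results reflect a 48-hour exposure of cells in 96-well plates to compound at five concentrations. TGI marks complete inhibition of growth.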 Where only a bound is given, the exact number is not on record here.

Among the test systems are DU-145 prostate; HL-60(TB) leukemia; HT29 colon; MCF7 breast; MDA-MB-231 breast; MOLT-4 leukemia; NCI/ADR-RES ovarian; SF-295 CNS; SN12C renal; SW-620 colon; UO-31 renal.
Common to all, as to experiment: growth of human tumour cells (NCI), 48 h

`Nc1nc2c(ncn2Cc2ccc(CO)cc2)c(=O)[nH]1`: the TGI with DU-145 prostate, in the test with HL-60(TB) leukemia, in the test with HT29 colon, in the test on MCF7 breast, in the test on MDA-MB-231 breast and in the test on MOLT-4 leukemia was more than 100 µM throughout. In addition, the TGI in the test with NCI/ADR-RES ovarian, in the test on SF-295 CNS, in the test on SN12C renal, with SW-620 colon and in the test on UO-31 renal was more than 100 µM in each case.

Take `CN(C)/C=N/n1c2ccccc2c2ccccc21`: the TGI with DU-145 prostate, with HL-60(TB) leukemia, in the test on HT29 colon, in the test on MCF7 breast, in the test on MDA-MB-231 breast and in the test with MOLT-4 leukemia was more than 100 µM each time. The TGI in the test with NCI/ADR-RES ovarian, in the test with SF-295 CNS, with SN12C renal, in the test on SW-620 colon and with UO-31 renal was more than 100 µM each time.

`CC12CC(C#N)(C#N)C(C#N)(CO1)C(=N)O2` (stereo not given): the TGI in the test with DU-145 prostate, with HL-60(TB) leukemia, in the test on HT29 colon, in the test on MCF7 breast, in the test on MDA-MB-231 breast and in the test on MOLT-4 leukemia was more than 100 µM in each case. The TGI in the test with NCI/ADR-RES ovarian, in the test on SF-295 CNS, in the test with SN12C renal, in the test with SW-620 colon and with UO-31 renal was more than 100 µM each time.

Take `CCCCn1c(C)c2c(c1C)C(=O)N(CC(O)CN1CCc3ccccc3C1)C2=O` (stereo not given): the TGI in the test with DU-145 prostate, with HL-60(TB) leukemia, in the test on HT29 colon, in the test with MCF7 breast, with MDA-MB-231 breast and in the test on MOLT-4 leukemia was more than 100 µM each time. For the same compound, the TGI in the test with NCI/ADR-RES ovarian, with SF-295 CNS, in the test with SN12C renal, in the test with SW-620 colon and in the test with UO-31 renal was more than 100 µM each time.

For `COc1ccc(OC)c(C2Cc3cnc4nc(N)nc(N)c4c3C2)c1` (stereo not given), the TGI in the test with DU-145 prostate is 55.7 µM; in the test with HL-60(TB) leukemia it was 40 µM; in the test on HT29 colon it was more than 100 µM; in the test on MCF7 breast, more than 100 µM; in the test on MDA-MB-231 breast it was 52.6 µM; with MOLT-4 leukemia, 87.5 µM. In addition, the TGI in the test on NCI/ADR-RES ovarian was more than 100 µM; in the test on SF-295 CNS it was 93.7 µM; in the test with SN12C renal, 56.8 µM; in the test with SW-620 colon, more than 100 µM; with UO-31 renal, more than 100 µM.

As for `CC1C[C@]2(C)C(=O)Nc3ccccc3[C@@H]2Nc2ccccc21` (stereo not given in full), the TGI in the test with DU-145 prostate was more than 100 µM; in the test with HL-60(TB) leukemia, 61 µM; with HT29 colon it was 30 µM; with MCF7 breast it was 84.9 µM; in the test with MDA-MB-231 breast, 36 µM; in the test with MOLT-4 leukemia, 59.2 µM. The TGI was 46.5 µM in the test on NCI/ADR-RES ovarian; more than 100 µM with SF-295 CNS; 37.6 µM in the test on SN12C renal; more than 100 µM in the test on SW-620 colon; more than 100 µM in the test with UO-31 renal.

Consider `COc1cc(C2SCC(=O)N2c2ccc(Cl)c(Cl)c2)cc(OC)c1OC` (stereo not given), for which the TGI in the test with DU-145 prostate was more than 100 µM; with HL-60(TB) leukemia, more than 73.9 µM; in the test with HT29 colon, more than 100 µM; in the test on MCF7 breast, more than 100 µM; with MDA-MB-231 breast, more than 100 µM; in the test with MOLT-4 leukemia, more than 67 µM. The TGI with NCI/ADR-RES ovarian, in the test with SF-295 CNS, in the test on SN12C renal, in the test with SW-620 colon and in the test with UO-31 renal was more than 100 µM throughout.

With `CCOC(=O)c1ccc(NC(=O)O/N=C(/Cl)CCl)cc1`, the TGI in the test on DU-145 prostate was more than 100 µM; in the test with HL-60(TB) leukemia, 68.7 µM; with HT29 colon it was more than 100 µM; in the test on MCF7 breast, 76 µM; in the test with MDA-MB-231 breast it was more than 100 µM; with MOLT-4 leukemia, more than 100 µM. In addition, the TGI with NCI/ADR-RES ovarian, in the test on SF-295 CNS, in the test on SN12C renal, with SW-620 colon and in the test on UO-31 renal was more than 100 µM each time.

Turning to `CC(C)(C)c1cc(C(=O)/C=C/C=C/c2ccccc2)cc(C(C)(C)C)c1O`, the TGI with DU-145 prostate was 98.1 µM; with HL-60(TB) leukemia it was 8.88 µM; in the test with HT29 colon it was more than 89.9 µM; in the test with MCF7 breast, more than 86.6 µM; in the test with MDA-MB-231 breast it was 49 µM; with MOLT-4 leukemia it was more than 63.1 µM. The TGI with NCI/ADR-RES ovarian is 30.5 µM; in the test on SF-295 CNS it was more than 100 µM; with SN12C renal, 77.3 µM; in the test with SW-620 colon it was 41.4 µM; in the test on UO-31 renal it was more than 77.3 µM.

Regarding `C[C@H]1C2Cc3cc(N)ccc3[C@@]1(C)CCN2CCc1ccccc1`, the TGI was more than 100 µM with DU-145 prostate; 87.7 µM with HL-60(TB) leukemia; more than 100 µM in the test on HT29 colon; 94.1 µM in the test with MCF7 breast; more than 100 µM with MDA-MB-231 breast; more than 100 µM with MOLT-4 leukemia. The TGI in the test on NCI/ADR-RES ovarian is more than 100 µM; in the test on SF-295 CNS it was 98.8 µM; in the test on SN12C renal, more than 100 µM; with SW-620 colon, more than 100 µM; in the test on UO-31 renal, more than 100 µM.

Turning to `C[C@@]12CCC3C1C=C1C(=O)c4cc(O)ccc4C(=O)[C@]1(O2)[C@@]3(C)C=O`, the TGI amounted to 11.3 µM in the test on DU-145 prostate; 3.88 µM with HL-60(TB) leukemia; 20.9 µM in the test on HT29 colon; 11.6 µM in the test with MCF7 breast; 19.3 µM in the test on MDA-MB-231 breast; 12.9 µM in the test with MOLT-4 leukemia. Moreover, the TGI in the test with NCI/ADR-RES ovarian was 49.5 µM; with SF-295 CNS, 22 µM; in the test with SN12C renal, 8.85 µM; with SW-620 colon, 12.9 µM; in the test on UO-31 renal, 13.7 µM.

For the compound `O=[N+]([O-])c1ccc(S(=O)(=O)N=Ic2ccccc2)cc1`, the TGI with DU-145 prostate, with HL-60(TB) leukemia, with HT29 colon, with MCF7 breast, in the test on MDA-MB-231 breast and with MOLT-4 leukemia was more than 100 µM throughout. Moreover, the TGI in the test with NCI/ADR-RES ovarian, in the test with SF-295 CNS, with SN12C renal, with SW-620 colon and in the test on UO-31 renal was more than 100 µM each time.

`CC(NNC(=O)CC(=O)N(C(=O)c1ccccc1)c1ccc(Cl)cc1)c1cc2ccccc2oc1=O` (stereo not given): the TGI in the test with DU-145 prostate, in the test on HL-60(TB) leukemia, with HT29 colon, in the test on MCF7 breast, in the test with MDA-MB-231 breast and in the test with MOLT-4 leukemia was more than 10 µM in each case. Moreover, the TGI in the test on NCI/ADR-RES ovarian was more than 10 µM; with SF-295 CNS, more than 10 µM; in the test with SN12C renal it was more than 10 µM; in the test with SW-620 colon, more than 10 µM; in the test with UO-31 renal, 0.275 µM.

On to `S=c1[nH]n2c(COc3cccc(OCc4nnc5sc(=S)[nH]n45)c3)nnc2s1`, for which the TGI in the test with DU-145 prostate is more than 100 µM; in the test with HL-60(TB) leukemia, 72.1 µM; in the test on HT29 colon, more than 100 µM; in the test with MCF7 breast, more than 100 µM; in the test on MDA-MB-231 breast, more than 100 µM; in the test on MOLT-4 leukemia it was more than 100 µM. Besides, the TGI with NCI/ADR-RES ovarian, in the test on SF-295 CNS, in the test on SN12C renal, in the test with SW-620 colon and in the test on UO-31 renal was more than 100 µM each time.

For `CCOC(=O)c1ccc(C(=O)/C(C#N)=C2\CCCN2C)[nH]1`, the TGI in the test with DU-145 prostate, in the test with HL-60(TB) leukemia, with HT29 colon, in the test on MCF7 breast, with MDA-MB-231 breast and with MOLT-4 leukemia was more than 100 µM each time. Also, the TGI in the test on NCI/ADR-RES ovarian, with SF-295 CNS, with SN12C renal, with SW-620 colon and with UO-31 renal was more than 100 µM each time.
